Laboratory results as given in patent publication US9447136B2, “Semisynthetic derivatives of Nystatin A1” (BLIRT S.A., priority 2012, dated 2016).
In brackets after ≈: the same amount, converted by molar mass.

Experiments:
[1] = tested on: Aspergillus niger LOCK E201; test: Antifungal activity in vitro, serial dilution in RPMI 1640; assay type: cell-based; details: Table 2B
Procedure, shortened: (§1)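 Broth serial dilution per M27-A2 in buffered RPMI 1640, pH 7.0. Growth read as optical density at 531 nm; IC50 interpolated as concentration giving 50% of control A531, MIC as lowest concentration giving at most 20% of control A531.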

[2] = tested on: Candida albicans ATCC 10231; test: as above; assay type: cell-based; details: for Antifungal activity Candida albicans ATCC 10231 IC50 / Antifungal activity Candida albicans ATCC 10231 MIC: Table 2A, RPMI 1640, pH 7.0; for Antifungal activity Candida albicans ATCC 10231 IC50: A531 50% of control; for Antifungal activity Candida albicans ATCC 10231 MIC: A531 at most 20% of control; for MIC Candida albicans ATCC 10231: Table 2B
Procedure, shortened: as §1

Candida arborea KKP 319 = test: as above; assay type: cell-based; details: Table 2B
Procedure, shortened: as §1

[3] = tested on: Candida dubliniensis CBS 7987; test: as above; assay type: cell-based; details: Table 2B
Procedure, shortened: as §1

[4] = tested on: Candida glabrata DSM 11226; test: as above; assay type: cell-based; details: Table 2A; RPMI 1640, pH 7.0
Procedure, shortened: as §1

Candida krusei DSM 6128 = test: as above; assay type: cell-based; details: Table 2A; RPMI 1640, pH 7.0
Procedure, shortened: as §1

[5] = tested on: Candida lipolytica KKP 322; test: as above; assay type: cell-based; details: Table 2B
Procedure, shortened: as §1

[6] = tested on: Candida parapsilosis DSM 5784; test: as above; assay type: cell-based; details: Table 2B
Procedure, shortened: as §1

[7] = tested on: Candida pseudotropicalis KKP 324; test: as above; assay type: cell-based; details: Table 2B
Procedure, shortened: as §1

[8] = tested on: Candida quilliermondii DSM 11947; test: as above; assay type: cell-based; details: Table 2B
Procedure, shortened: as §1

[9] = tested on: Candida stellatoidea CBS 1905; test: as above; assay type: cell-based; details: Table 2B
Procedure, shortened: as §1

[10] = tested on: Candida tropicalis KKP 334; test: as above; assay type: cell-based; details: Table 2A; RPMI 1640, pH 7.0
Procedure, shortened: as §1

[11] = tested on: Saccharomyces cerevisiae ATCC 9763; test: as above; assay type: cell-based; details: for Antifungal activity Saccharomyces cerevisiae ATCC 9763 MIC: Table 2A, RPMI 1640, pH 7.0, A531 at most 20% of control; for MIC Saccharomyces cerevisiae ATCC 9763: Table 2B
Procedure, shortened: as §1

[12] = tested on: Trichoderma viride LOCK E159; test: as above; assay type: cell-based; details: Table 2B
Procedure, shortened: as §1

Human erythrocytes = test: Hemotoxicity (hemolytic activity)
Procedure, shortened: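 Human erythrocytes in saline (2×10^7/ml) were incubated with serially diluted compound at 37 °C for 30 min, then centrifuged. Released hemoglobin was read as A540 against 0.1% Triton X-100 as full hemolysis. EH50 is the interpolated concentration giving 50% of the control A540.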

Candida albicans 5674 = test: Antifungal activity towards resistant (MDR) strains; assay type: cell-based; details: C. albicans 5674 overexpressing CDR1 and CDR2
Experimental: (§2) The determination of antifungal activity was performed by the serial dilutions method in buffered RPMI 1640 medium, in a 96-wells microplates, according to the standard procedure (National Committee for Clinical Laboratory Standards. Reference method for broth dilution antifungal susceptibility testing of yeast, approved standard, 2nd ed. M27-A2 vol. 22 Wayne, Pa., 2002). The optical density of cells suspension was measured using a microplates reader (Victor^3, Perkin-Elmer) at the wavelength λ=660 nm (A660). On the basis of received results the diagrams on interrelation between the A660 value and the concentration of tested compound were made. From these graphs MIC values were read, that are the concentrations of tested compounds, in the presence at which A660 value is at most 20% of A660 value measured in control sample.

Candida albicans B3 = test: as above; assay type: cell-based; details: fluconazole sensitive, parent strain for B4
Experimental: as §2

Candida albicans B4 = test: as above; assay type: cell-based; details: fluconazole-resistant due to the overexpression of CaMDR1
Experimental: as §2

Candida albicans F2 = test: as above; assay type: cell-based; details: fluconazole sensitive, parent strain for F5
Experimental: as §2

Candida albicans F5 = test: as above; assay type: cell-based; details: fluconazole-resistant due to the overexpression of CaMDR1 and ERG11
Experimental: as §2

Candida albicans Gu4 = test: as above; assay type: cell-based; details: fluconazole sensitive, parent strain for Gu5
Experimental: as §2

Candida albicans Gu5 = test: as above; assay type: cell-based; details: fluconazole-resistant due to the overexpression of CDR1 and CDR2
Experimental: as §2

Candida albicans STY19 = test: as above; assay type: cell-based; details: 5674 mutant derivative, deletion of CDR1
Experimental: as §2

Candida albicans STY31 = test: as above; assay type: cell-based; details: 5674 mutant derivative, deletion of CDR1 and CDR2
Experimental: as §2

Candida albicans STY7 = test: as above; assay type: cell-based; details: 5674 mutant derivative, deletion of CDR2
Experimental: as §2

CCRF-CEM = test: Cytotoxic activity against mammalian cells in tissue culture (MTT); assay type: cell-based, human
Experimental: (§3) For examinations were used selected cell lines: CCRF-CEM—human acute lymphoblastic leukemia; HepG2—human malignant hepatoma; LLC-PK1—epithelial cell of pig kidney; All lines were from ATCC collection.
(§4) The study are conducted using described below methods of culturing and determination of cytotoxic activity.
(§5) CCRF-CEM cells were cultured in medium RPMI 1640+10% fetal bovine serum (FBS), LLC-PK1 cells in medium Medium 199+3% FBS, HepG2 cells in medium MEM+10% FBS. All media contained 100 μg/ml of penicillin G and streptomycin. 24-wells microplates containing appropriate medium were inoculated with the cells in amount of 1.2×10^4 cells/well and allowed to stand overnight. Next, tested compounds as solution in dimethylsulfoxide (DMSO) were added in volume of 10 μl (serial 2× dilutions). To control well 10 μl of DMSO was added. Microplates with cell suspensions were incubated for 120 h at temperature 37° C. at atmosphere of 95%/5% CO2. After incubation, to all wells 200 μl of solution of 3-(4,5-dimethylthiazole-2-yl)-2,5-diphenylotetrazole bromide (MTT) in PBS (4 mg/ml) was added and plates were further incubated for 4 h at 37° C. Next, to dissolve crystals of formazane 1 ml of DMSO was added and absorption of solutions was measured at the wavelength λ=540 nm (A540), using a microplates reader (Victor^3, Perkin-Wallac). […] From these graphs IC50 values were read, that is concentration of tested compound in the presence at which A540 value is half of A540 value measured in the control sample.

HepG2 = test: as above; assay type: cell-based, human
Experimental: as §3, §4, §5

LLC-PK1 = test: as above; assay type: cell-based, pig
Experimental: as §3, §4, §5

Structure (SMILES)	MIC Aspergillus niger LOCK E201 [1]	Antifungal activity Candida albicans ATCC 10231 IC50 [2]	Antifungal activity Candida albicans ATCC 10231 MIC [2]	MIC Candida albicans ATCC 10231 [2]	MIC Candida arborea KKP 319 (Candida arborea KKP 319)	MIC Candida dubliniensis CBS 7987 [3]	Antifungal activity Candida glabrata DSM 11226 MIC [4]	Antifungal activity Candida krusei DSM 6128 MIC (Candida krusei DSM 6128)	MIC Candida lipolytica KKP 322 [5]	MIC Candida parapsilosis DSM 5784 [6]	MIC Candida pseudotropicalis KKP 324 [7]	MIC Candida quilliermondii DSM 11947 [8]	MIC Candida stellatoidea CBS 1905 [9]	Antifungal activity Candida tropicalis KKP 334 MIC [10]	Antifungal activity Saccharomyces cerevisiae ATCC 9763 MIC [11]	MIC Saccharomyces cerevisiae ATCC 9763 [11]	MIC Trichoderma viride LOCK E159 [12]	% of hemolysis at the concentration 60 μg ml^−1 (Human erythrocytes)	MIC Candida albicans 5674 (Candida albicans 5674)	MIC Candida albicans B3 (Candida albicans B3)	further results
CC1OC(O[C@H]2/C=C/C=C/C=C/C=C/CC/C=C/C=C/[C@H](C)[C@@H](O)[C@@H](C)[C@H](C)OC(=O)C[C@H](O)C[C@H](O)C[C@H](O)CC[C@@H](O)[C@H](O)CC3(O)C[C@H](O)[C@@H](C(=O)O)[C@H](C2)O3)C(O)C(NC(=O)[C@H](N)CCC(=O)OC(C)(C)C)C1O (stereo partly drawn) [Compound N37, N-D-(O-tert-butyl)glutamylnystatin A1]	16 µg/mL (≈ 14.4 µM)	2.73 µg/mL	4 µg/mL	4 µg/mL (≈ 3.6 µM)	32 µg/mL (≈ 28.8 µM)	8 µg/mL (≈ 7.2 µM)	8 µg/mL	8 µg/mL	16 µg/mL (≈ 14.4 µM)	16 µg/mL (≈ 14.4 µM)	8 µg/mL (≈ 7.2 µM)	16 µg/mL (≈ 14.4 µM)	8 µg/mL (≈ 7.2 µM)	4 µg/mL	4 µg/mL	4 µg/mL (≈ 3.6 µM)	32 µg/mL (≈ 28.8 µM)	0.04%	32 µg/mL (≈ 28.8 µM)	8 µg/mL (≈ 7.2 µM)	MIC Candida albicans B4 (Candida albicans B4): 8 µg/mL (≈ 7.2 µM); MIC Candida albicans F2 (Candida albicans F2): 16 µg/mL (≈ 14.4 µM); MIC Candida albicans F5 (Candida albicans F5): 16 µg/mL (≈ 14.4 µM); MIC Candida albicans Gu4 (Candida albicans Gu4): 8 µg/mL (≈ 7.2 µM); MIC Candida albicans Gu5 (Candida albicans Gu5): 8 µg/mL (≈ 7.2 µM); MIC Candida albicans STY19 (Candida albicans STY19): 32 µg/mL (≈ 28.8 µM); MIC Candida albicans STY31 (Candida albicans STY31): 32 µg/mL (≈ 28.8 µM); MIC Candida albicans STY7 (Candida albicans STY7): 32 µg/mL (≈ 28.8 µM); Cytotoxicity IC50 CCRF-CEM (CCRF-CEM): >100 µg/mL; Cytotoxicity IC50 HepG2 (HepG2): >100 µg/mL; Cytotoxicity IC50 LLC-PK1 (LLC-PK1): 85.5 ± 4.30 µg/mL
CC1OC(O[C@H]2/C=C/C=C/C=C/C=C/CC/C=C/C=C/[C@H](C)[C@@H](O)[C@@H](C)[C@H](C)OC(=O)C[C@H](O)C[C@H](O)C[C@H](O)CC[C@@H](O)[C@H](O)CC3(O)C[C@H](O)[C@@H](C(=O)O)[C@H](C2)O3)C(O)C(NC(=O)[C@H](N)CC(=O)OC(C)(C)C)C1O (stereo partly drawn) [Compound N41, N-D-(O-tert-butyl)asparagylnystatin A1]	8 µg/mL (≈ 7.29 µM)	4.69 µg/mL	8 µg/mL	8 µg/mL (≈ 7.29 µM)	8 µg/mL (≈ 7.29 µM)	2 µg/mL (≈ 1.82 µM)	8 µg/mL	8 µg/mL	8 µg/mL (≈ 7.29 µM)	8 µg/mL (≈ 7.29 µM)	4 µg/mL (≈ 3.65 µM)	8 µg/mL (≈ 7.29 µM)	4 µg/mL (≈ 3.65 µM)	4 µg/mL	4 µg/mL	4 µg/mL (≈ 3.65 µM)	32 µg/mL (≈ 29.2 µM)	0.15%	16 µg/mL (≈ 14.6 µM)	8 µg/mL (≈ 7.29 µM)	MIC Candida albicans B4 (Candida albicans B4): 16 µg/mL (≈ 14.6 µM); MIC Candida albicans F2 (Candida albicans F2): 16 µg/mL (≈ 14.6 µM); MIC Candida albicans F5 (Candida albicans F5): 16 µg/mL (≈ 14.6 µM); MIC Candida albicans Gu4 (Candida albicans Gu4): 8 µg/mL (≈ 7.29 µM); MIC Candida albicans Gu5 (Candida albicans Gu5): 8 µg/mL (≈ 7.29 µM); MIC Candida albicans STY19 (Candida albicans STY19): 0.5 µg/mL (≈ 0.456 µM); MIC Candida albicans STY31 (Candida albicans STY31): 16 µg/mL (≈ 14.6 µM); MIC Candida albicans STY7 (Candida albicans STY7): 16 µg/mL (≈ 14.6 µM); Cytotoxicity IC50 CCRF-CEM (CCRF-CEM): >100 µg/mL; Cytotoxicity IC50 HepG2 (HepG2): >100 µg/mL; Cytotoxicity IC50 LLC-PK1 (LLC-PK1): >100 µg/mL
